The text below walks through data of patent US11292796B2 (SIGNAL PHARMACEUTICALS, LLC, priority 2008, dated 2022).

In this assay the target is T1, mTOR (Homo sapiens, UniProt P42345).
T1 construct: purchased Invitrogen PR8683A
T1 sequence (P42345 1360-2549 limits assumed): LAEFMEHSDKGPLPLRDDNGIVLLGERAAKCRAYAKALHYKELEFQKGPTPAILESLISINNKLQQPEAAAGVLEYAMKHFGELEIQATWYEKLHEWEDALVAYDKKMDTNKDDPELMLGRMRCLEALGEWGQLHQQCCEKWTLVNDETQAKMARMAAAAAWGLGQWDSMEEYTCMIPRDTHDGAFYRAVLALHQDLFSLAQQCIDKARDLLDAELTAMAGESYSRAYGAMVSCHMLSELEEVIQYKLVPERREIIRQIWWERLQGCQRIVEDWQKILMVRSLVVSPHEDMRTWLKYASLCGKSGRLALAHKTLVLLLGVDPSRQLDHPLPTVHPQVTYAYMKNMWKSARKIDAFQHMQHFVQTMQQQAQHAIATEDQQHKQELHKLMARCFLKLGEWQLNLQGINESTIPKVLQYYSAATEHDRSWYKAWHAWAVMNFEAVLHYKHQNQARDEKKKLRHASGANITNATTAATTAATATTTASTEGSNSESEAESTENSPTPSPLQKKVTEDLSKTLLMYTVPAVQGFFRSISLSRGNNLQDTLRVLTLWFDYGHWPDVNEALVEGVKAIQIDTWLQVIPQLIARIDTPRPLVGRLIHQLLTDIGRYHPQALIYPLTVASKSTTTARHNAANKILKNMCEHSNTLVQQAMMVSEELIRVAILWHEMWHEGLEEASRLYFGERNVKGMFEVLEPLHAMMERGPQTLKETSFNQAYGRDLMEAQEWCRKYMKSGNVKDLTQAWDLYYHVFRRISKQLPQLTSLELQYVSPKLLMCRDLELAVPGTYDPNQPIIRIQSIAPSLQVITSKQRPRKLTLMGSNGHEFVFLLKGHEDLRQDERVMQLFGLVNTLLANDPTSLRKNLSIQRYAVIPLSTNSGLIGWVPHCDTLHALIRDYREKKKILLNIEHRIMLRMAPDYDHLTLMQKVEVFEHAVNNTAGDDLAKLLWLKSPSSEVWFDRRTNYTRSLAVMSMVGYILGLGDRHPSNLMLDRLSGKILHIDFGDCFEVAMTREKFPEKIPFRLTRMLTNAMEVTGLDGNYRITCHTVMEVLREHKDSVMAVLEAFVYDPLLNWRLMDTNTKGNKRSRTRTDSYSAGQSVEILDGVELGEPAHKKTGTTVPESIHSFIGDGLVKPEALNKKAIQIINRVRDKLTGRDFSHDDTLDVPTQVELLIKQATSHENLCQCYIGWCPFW
In words: mTOR HTR-FRET assay. The settings on record: read-out: Act. Level (IC50 in mTor HTR-FRET assay). The assay is classed as biochemical. In a few lines: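 Test compounds, taken from 10 mM DMSO stocks and diluted, were mixed with mTOR enzyme (0.200 μg/mL) in Tris buffer pH 7.4 with 100 mM NaCl, 0.1% Tween-20 and 1 mM DTT. ATP/substrate addition initiated the reaction, alongside compound-free controls.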
As usually defined, the IC50 is the concentration needed to halve the response being measured. For `CC(C)(O)c1ccc(-c2cnc3c(n2)N(Cc2cccc(C(F)(F)F)c2)CC(=O)N3)cn1` [Example 137, 6-(6-(2-hydroxypropan-2-yl)pyridin-3-yl)-4-(3-(trifluoromethyl)benzyl)-3,4-dihydropyrazino[2,3-b]pyrazin-2(1H)-one], the half-inhibitory concentration (IC50) is 0.005 to 250 nM.

Regarding `CO[C@H]1CC[C@@H](CN2CC(=O)Nc3ncc(-c4ccc(-c5nc[nH]n5)nc4)nc32)CC1` [Example 7], the IC50 fell in the range of 0.005 to 250 nM.

`CO[C@H]1CC[C@@H](N2CC(=O)Nc3ncc(-c4ccc(-c5nc[nH]n5)c(F)c4C)nc32)CC1` [Example 28, 6-(3-fluoro-2-methyl-4-(1H-1,2,4-triazol-3-yl)phenyl)-4-(cis-4-methoxycyclohexyl)-3,4-dihydropyrazino[2,3-b]pyrazin-2(1H)-one]: the 50% inhibitory concentration (IC50) was 0.005 to 250 nM.

As to `Cc1cc(-c2nc[nH]n2)c(F)cc1-c1cnc2c(n1)N(C[C@H]1CC[C@@H](O)CC1)C(=O)CN2` [Example 165, 7-(5-fluoro-2-methyl-4-(1H-1,2,4-triazol-3-yl)phenyl)-1-((cis-4-hydroxycyclohexyl)methyl)-3,4-dihydropyrazino[2,3-b]pyrazin-2(1H)-one], the concentration for half-maximal inhibition (IC50) was in the range of 0.005 to 250 nM.

Consider `CC(C)(O)c1ccc(-c2cnc3c(n2)N(C[C@H]2CCCO2)CC(=O)N3)cn1` [Example 116, (R)-6-(6-(2-hydroxypropan-2-yl)pyridin-3-yl)-4-((tetrahydrofuran-2-yl)methyl)-3,4-dihydropyrazino[2,3-b]pyrazin-2(1H)-one], for which the IC50 was in the range of 500 to 1000 nM.

Consider `CO[C@H]1CC[C@H](N2C(=O)CNc3ncc(-c4ccc(C(C)(C)O)nc4)nc32)C1` [Example 210, 7-(6-(2-hydroxypropan-2-yl)pyridin-3-yl)-1-((1S,3S)-3-methoxycyclopentyl)-3,4-dihydropyrazino[2,3-b]pyrazin-2(1H)-one], for which the IC50 was in the range of 0.005 to 250 nM.

For the molecule `Cc1cc(-c2nnc[nH]2)ccc1-c1cnc2c(n1)N(CC1CCOCC1)C1(CCC1)C(=O)N2` [Example 62, 7′-(2-methyl-4-(4H-1,2,4-triazol-3-yl)phenyl)-1′-((tetrahydro-2H-pyran-4-yl)methyl)-1′H-spiro[cyclobutane-1,2′-pyrazino[2,3-b]pyrazin]-3′(4′H)-one], the IC50 lay in the range of 0.005 to 250 nM.

Consider `CCN1C(=O)CNc2ncc(-c3cccc4[nH]ncc34)nc21` [Example 194, 1-ethyl-7-(1H-indazol-4-yl)-3,4-dihydropyrazino[2,3-b]pyrazin-2(1H)-one], for which the IC50 lay within 1000 to 10000 nM.

Take `O=C1CN(CCC2CCOCC2)c2nc(-c3cnc4[nH]ccc4c3)cnc2N1` [Example 43, 6-(1H-pyrrolo[2,3-b]pyridin-5-yl)-4-(2-(tetrahydro-2H-pyran-4-yl)ethyl)-3,4-dihydropyrazino[2,3-b]pyrazin-2(1H)-one]: the IC50 is 0.005 to 250 nM.

Regarding `Cc1cc(-c2nc[nH]n2)ncc1-c1cnc2c(n1)N(C(C)C)C(=O)CN2` [Example 179, 1-isopropyl-7-(4-methyl-6-(1H-1,2,4-triazol-3-yl)pyridin-3-yl)-3,4-dihydropyrazino[2,3-b]pyrazin-2(1H)-one], the IC50 fell in the range of 0.005 to 250 nM.

With `COCCN1CCN2c3nc(-c4ccc(-c5nnc[nH]5)cc4C)cnc3NC(=O)C2C1` (centres unmarked) [Example 98, 9-(4-(4H-1,2,4-triazol-3-yl)-2-methylphenyl)-3-(2-methoxyethyl)-6,11,4a-trihydropiperazino[1,2-e]pyrazino[2,3-b]pyrazin-5-one], the IC50 lay in the range of 250 to 500 nM.

As for `CO[C@H]1C[C@H]2C(=O)Nc3ncc(-c4ccc(-c5nnc[nH]5)cc4C)nc3N2C1` [Example 113, 8-(4-(4H-1,2,4-triazol-3-yl)-2-methylphenyl)(2S,3aS)-2-methoxy-5,10,3a-trihydropyrazino[2,3-b]pyrrolidino[1,2-e]pyrazin-4-one], the half-inhibitory concentration (IC50) lay in the range of 250 to 500 nM.

For the molecule `COCCN1C(=O)CNc2ncc(-c3cnc(-c4nc[nH]n4)cc3C)nc21` [Example 240, 1-(2-methoxyethyl)-7-(4-methyl-6-(1H-1,2,4-triazol-3-yl)pyridin-3-yl)-3,4-dihydropyrazino[2,3-b]pyrazin-2(1H)-one], the IC50 fell in the range of 0.005 to 250 nM.

As to `O=C1CN(C[C@@H]2CCCO2)c2nc(-c3ccc(-c4nnc[nH]4)cc3)cnc2N1` [Example 68, (S)-6-(4-(4H-1,2,4-triazol-3-yl)phenyl)-4-((tetrahydrofuran-2-yl)methyl)-3,4-dihydropyrazino[2,3-b]pyrazin-2(1H)-one], the IC50 lay within 0.005 to 250 nM.

For `CO[C@H]1CC[C@@H](CN2CC(=O)Nc3ncc(-c4ccc(-c5nnc[nH]5)nc4C)nc32)C1` [Example 46, 4-(((1R,3S)-3-methoxycyclopentyl)methyl)-6-(2-methyl-6-(4H-1,2,4-triazol-3-yl)pyridin-3-yl)-3,4-dihydropyrazino[2,3-b]pyrazin-2(1H)-one], the 50% inhibitory concentration (IC50) was 0.005 to 250 nM.

For `CC(C)CN1CC(=O)Nc2ncc(-c3ccc(C(C)(C)O)nc3)nc21` [Example 106, 6-(6-(2-hydroxypropan-2-yl)pyridin-3-yl)-4-isobutyl-3,4-dihydropyrazino[2,3-b]pyrazin-2(1H)-one], the half-inhibitory concentration (IC50) fell in the range of 500 to 1000 nM.

As to `Cc1cc(-c2nnc[nH]2)ccc1-c1cnc2c(n1)N(CCC1CCOCC1)C(C)C(=O)N2` (centres unmarked) [Example 107, 3-methyl-6-(2-methyl-4-(4H-1,2,4-triazol-3-yl)phenyl)-4-(2-(tetrahydro-2H-pyran-4-yl)ethyl)-3,4-dihydropyrazino[2,3-b]pyrazin-2(1H)-one], the IC50 lay within 0.005 to 250 nM.

As for `Cc1cc(-c2nnc[nH]2)ccc1-c1cnc2c(n1)NCC(=O)N2` [Example 73, 6-(2-methyl-4-(4H-1,2,4-triazol-3-yl)phenyl)-3,4-dihydropyrazino[2,3-b]pyrazin-2(1H)-one], the IC50 was 250 to 500 nM.

`O=C1CNc2ncc(-c3cccc4[nH]ccc34)nc2N1CCC1CCOCC1` [Example 167, 7-(1H-indol-4-yl)-1-(2-(tetrahydro-2H-pyran-4-yl)ethyl)-3,4-dihydropyrazino[2,3-b]pyrazin-2(1H)-one]: the IC50 lay within 250 to 500 nM.

As to `Cc1cc(-c2nnc[nH]2)ccc1-c1cnc2c(n1)NC1(CCC1)C(=O)N2` [Example 65, 7′-(2-methyl-4-(4H-1,2,4-triazol-3-yl)phenyl)-1′H-spiro[cyclobutane-1,2′-pyrazino[2,3-b]pyrazin]-3′(4′H)-one], the IC50 was in the range of 250 to 500 nM.

As to `CO[C@@H]1CC[C@H](N2CC(=O)Nc3ncc(-c4ccc(-c5nnc[nH]5)nc4C)nc32)C1` [Example 39, 4-((1S,3R)-3-methoxycyclopentyl)-6-(2-methyl-6-(4H-1,2,4-triazol-3-yl)pyridin-3-yl)-3,4-dihydropyrazino[2,3-b]pyrazin-2(1H)-one], the IC50 lay in the range of 0.005 to 250 nM.

On to `C[C@@H]1Nc2ncc(-c3ccc(C(C)(C)O)nc3)nc2N(CCC2CCOCC2)C1=O` [Example 267, (S)-7-(6-(2-hydroxypropan-2-yl)pyridin-3-yl)-3-methyl-1-(2-(tetrahydro-2H-pyran-4-yl)ethyl)-3,4-dihydropyrazino[2,3-b]pyrazin-2(1H)-one], for which the concentration for half-maximal inhibition (IC50) fell in the range of 500 to 1000 nM.

For `O=C1CNc2ncc(-c3cncnc3)nc2N1CCC1CCOCC1` [Example 190, 7-(pyrimidin-5-yl)-1-(2-(tetrahydro-2H-pyran-4-yl)ethyl)-3,4-dihydropyrazino[2,3-b]pyrazin-2(1H)-one], the IC50 lay within 1000 to 10000 nM.

Turning to `Cc1cc(-c2cnc3c(n2)N(Cc2cccc(C(F)(F)F)c2)CC(=O)N3)cc2nc(N)[nH]c12` [Example 136, 6-(2-amino-7-methyl-1H-benzo[d]imidazol-5-yl)-4-(3-(trifluoromethyl)benzyl)-3,4-dihydropyrazino[2,3-b]pyrazin-2(1H)-one], the half-maximal inhibitory concentration (IC50) was 500 to 1000 nM.

Take `Cc1nc(-c2nc[nH]n2)ccc1-c1cnc2c(n1)N(CCO)C(=O)CN2` [Example 274, 1-(2-hydroxyethyl)-7-(2-methyl-6-(1H-1,2,4-triazol-3-yl)pyridin-3-yl)-3,4-dihydropyrazino[2,3-b]pyrazin-2(1H)-one]: the IC50 lay in the range of 0.005 to 250 nM.

Consider `CO[C@@H]1CC[C@H](N2C(=O)CNc3ncc(-c4ccc(C(C)(C)O)nc4)nc32)C1` [Example 209, 7-(6-(2-hydroxypropan-2-yl)pyridin-3-yl)-1-((1S,3R)-3-methoxycyclopentyl)-3,4-dihydropyrazino[2,3-b]pyrazin-2(1H)-one], for which the IC50 lay within 0.005 to 250 nM.

With `CO[C@H]1CC[C@H](N2CC(=O)Nc3ncc(-c4ccc(C(C)(C)O)nc4)nc32)C1` [Example 55, 6-(6-(2-hydroxypropan-2-yl)pyridin-3-yl)-4-((1S,3S)-3-methoxycyclopentyl)-3,4-dihydropyrazino[2,3-b]pyrazin-2(1H)-one], the IC50 lay in the range of 1000 to 10000 nM.

Consider `CO[C@H]1CC[C@H](N2CC(=O)Nc3ncc(-c4cnc(C(C)(C)O)cc4C)nc32)CC1` [Example 77, 6-(6-(2-hydroxypropan-2-yl)-4-methylpyridin-3-yl)-4-(trans-4-methoxycyclohexyl)-3,4-dihydropyrazino[2,3-b]pyrazin-2(1H)-one], for which the half-inhibitory concentration (IC50) was 0.005 to 250 nM.

Turning to `Cc1cc(-c2nnc[nH]2)ccc1-c1cnc2c(n1)N(Cc1ccccc1)C(=O)CN2` [Example 241, 1-benzyl-7-(2-methyl-4-(4H-1,2,4-triazol-3-yl)phenyl)-3,4-dihydropyrazino[2,3-b]pyrazin-2(1H)-one], the half-inhibitory concentration (IC50) fell in the range of 0.005 to 250 nM.

As to `C[C@@H](O)c1ccc(-c2cnc3c(n2)N(CCC2CCOCC2)C(=O)CN3)cn1` [Example 254, (R)-7-(6-(1-hydroxyethyl)pyridin-3-yl)-1-(2-(tetrahydro-2H-pyran-4-yl)ethyl)-3,4-dihydropyrazino[2,3-b]pyrazin-2(1H)-one], the IC50 is 0.005 to 250 nM.

Turning to `Cc1nc(C(C)(C)O)ccc1-c1cnc2c(n1)N(CC1CCOCC1)CC(=O)N2` [Example 81, 6-(6-(2-hydroxypropan-2-yl)-2-methylpyridin-3-yl)-4-((tetrahydro-2H-pyran-4-yl)methyl)-3,4-dihydropyrazino[2,3-b]pyrazin-2(1H)-one], the IC50 is 0.005 to 250 nM.

For the molecule `COCCN1C(=O)CNc2ncc(-c3ccc(C(C)(C)O)cc3)nc21` [Example 252, 7-(4-(2-hydroxypropan-2-yl)phenyl)-1-(2-methoxyethyl)-3,4-dihydropyrazino[2,3-b]pyrazin-2(1H)-one], the IC50 lay within 1000 to 10000 nM.
